Data reported in patent publication US8569336B2, “Compounds for the treatment of inflammatory disorders” (priority 2008, dated 2013).
Like-named read-outs stand apart in the source and are kept apart here.

What was measured:
[1] = tested on: TNF-α production from human whole blood; assay: Inhibition of TNF-α production from human whole blood (hWBA), LPS stimulated, ELISA; type: cell-based; settings: Homo sapiens, TNF-α by ELISA, read-out: hWBA (IC50)
[2] = Area under the curve determinations of plasma levels in rats (rrAUC), oral 10 mg/kg; type: in vivo; settings: for AUC: rat, read-out: RR AUC (rapid rat AUC, rrAUC)
[3] = biological target: T1, purified catalytic domain of recombinant human TACE (rhTACEc) (Homo sapiens, UniProt P78536, N452Q/S266A); assay: TACE kinetic assay: cleavage of internally quenched peptide substrate TNF-FRET 2 (Ki); type: biochemical; settings: TNF-FRET 2 substrate
T1 construct: 6xHis (C); made in house; host or cells: baculovirus/Hi5 insect cells

[4] = 3.5 h, human whole blood diluted 1:1, LPS stimulated, 3.5 h
[5] = LPS-stimulated human whole blood
[6] = human whole blood diluted 1:1, LPS stimulated
[7] = plasma, blood collected 0.5-6 h post-dosing
[8] = blood collected 0.5-6 h post-dosing

T1 sequence (P78536 215-477 S266A/N452Q): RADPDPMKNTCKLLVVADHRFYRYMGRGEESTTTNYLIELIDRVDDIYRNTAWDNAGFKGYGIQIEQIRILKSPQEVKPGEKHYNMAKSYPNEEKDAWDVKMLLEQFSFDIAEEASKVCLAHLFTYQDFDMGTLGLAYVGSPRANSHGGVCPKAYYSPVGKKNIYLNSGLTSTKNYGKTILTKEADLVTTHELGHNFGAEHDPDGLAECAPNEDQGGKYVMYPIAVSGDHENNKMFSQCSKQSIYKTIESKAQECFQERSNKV

Structure (SMILES) | IC50 [1, 4] [nM] | AUC ([2]; plasma 0.5-6 h post-dosing) [µM·h] | Ki ([3]; read-out: Ki) [nM] | further results
COc1ccc2c(c1)C(=O)N(C[C@@]1(c3cc4nc(-c5cnn(C)c5)ccc4o3)NC(=O)NC1=O)C2 [Compound 2104] | 285 | 0.369 | – | Ki ([3]; Ki): 0.191 nM
CCC1(c2cc(F)c3oc([C@]4(CN5Cc6ccc(OC)cc6C5=O)NC(=O)NC4=O)cc3c2)NC(=O)NC1=O (stereo partly drawn) [Compound 2210] | 232 | 0.018 | 0.319 | –
CCC1(c2ccc3oc([C@]4(CN5Cc6ccc(OC)c(F)c6C5=O)NC(=O)NC4=O)cc3c2)NC(=O)NC1=O (stereo partly drawn) [Compound 1307] | – | – | 0.81 | IC50 [1, 5]: 204 nM; AUC ([2]; plasma 0.5-6 h): 2.01 µM·h
COc1ccc2c(c1F)C(=O)N(C[C@@]1(c3cc4c(C)nccc4o3)NC(=O)NC1=O)C2 [Compound 2204] | 115 | 0.983 | 0.34 | –
CCOC(=O)N1CCc2oc([C@]3(CN4Cc5ccc(OC)cc5C4=O)NC(=O)NC3=O)cc2C1 [Compound 315] | – | – | – | IC50 [1, 5]: 654 nM; AUC ([2]; plasma 0.5-6 h): 4.03 µM·h; Ki ([3]; Ki): 0.93 nM
COc1ccc2c(c1)C(=O)N(C[C@@]1(c3cc4cc(-c5ccncc5)cnc4o3)NC(=O)NC1=O)C2 [Compound 2255] | 396 | 0.527 | 0.523 | –
COc1ccc2c(c1)C(=O)N(C[C@@]1(c3cc4nc(N(c5cccnc5)C5CCNCC5)ccc4o3)NC(=O)NC1=O)C2 [Compound 2145] | 174 | 0.086 | – | Ki ([3]; Ki): 0.547 nM
COc1ccc2c(c1F)C(=O)N(C[C@@]1(c3cc4ncccc4o3)NC(=O)NC1=O)C2 [Compound 2203] | 200 | 3.92 | 0.468 | –
COc1ccc2c(c1)C(=O)N(C[C@@]1(c3cc4cc(-c5cccnc5)ncc4o3)NC(=O)NC1=O)C2 [Compound 2239] | 718 | 9.84 | 0.669 | –
COc1ccc2c(c1F)C(=O)N(C[C@@]1(c3cc4cc5c(c(C)c4o3)C(=O)NC5)NC(=O)NC1=O)C2 [Compound 2497] | – | – | 0.29 | IC50 [1, 6]: 673 nM; AUC [2, 7]: 1.05 µM·h
COc1ccc2c(c1Cl)C(=O)N(C[C@@]1(c3cc4ncccc4o3)NC(=O)NC1=O)C2 [Compound 2153] | 2650 | 1.76 | 1.1 | –
COc1ccc2c(c1F)C(=O)N(C[C@@]1(c3cc4ccncc4o3)NC(=O)NC1=O)C2 [Compound 2272] | 167 | 2.79 | 0.3 | –
COc1ccc2c(c1)C(=O)N(C[C@@]1(c3cc4nc(NC(=O)c5ccncc5)ccc4o3)NC(=O)NC1=O)C2 [Compound 2135] | 2780 | 0.56 | 1.2 | –
COc1ccc2c(c1)C(=O)N(C[C@@]1(c3cc4cc(-c5ccc(N)nc5)c(F)cc4o3)NC(=O)NC1=O)C2 [Compound 1188] | 720 | 0.355 | 0.51 | –
CCN1CCN(c2nc3cc([C@]4(CN5Cc6ccc(OC)c(F)c6C5=O)NC(=O)NC4=O)oc3cc2F)CC1 [Compound 1709] | – | – | 0.7 | IC50 [1, 5]: 131 nM; AUC ([2]; plasma 0.5-6 h): 0.623 µM·h
COc1ccc2c(c1F)C(=O)N(C[C@@]1(c3cc4cc(F)c5c(c4o3)CNC5=O)NC(=O)NC1=O)C2 [Compound 2501] | – | – | 0.86 | IC50 [1, 6]: 148 nM; AUC [2, 7]: 0.448 µM·h

Structure (SMILES) | IC50 [1, 4] [nM] | AUC ([2]; plasma 0.5-6 h post-dosing) [µM·h] | Ki ([3]; read-out: Ki) [nM] | further results
CCN1CCN(c2ccc3oc([C@]4(CN5Cc6ccc(OCC7CC7)c(F)c6C5=O)NC(=O)NC4=O)cc3n2)CC1 [Compound 900] | – | – | 0.52 | IC50 [1, 5]: 290 nM; AUC ([2]; plasma 0.5-6 h): 0.024 µM·h
COc1ccc2c(c1)C(=O)N(C[C@@]1(c3cc4nc(Nc5c(C)nn(C)c5C)ccc4o3)NC(=O)NC1=O)C2 [Compound 2112] | 533 | 0.019 | 0.385 | –
COc1ccc2c(c1)C(=O)N(C[C@@]1(c3cc4c(C#N)nccc4o3)NC(=O)NC1=O)C2 [Compound 323] | – | – | – | IC50 [1, 5]: 1240 nM; AUC ([2]; plasma 0.5-6 h): 0.485 µM·h; Ki ([3]; Ki): 0.7 nM
COc1ccc2c(c1F)C(=O)N(C[C@@]1(c3cc4cc5c(c(-c6cccnc6)c4o3)C(=O)NC5)NC(=O)NC1=O)C2 [Compound 1310] | – | – | – | AUC ([2]; plasma 0.5-6 h): 0.614 µM·h
COc1ccc2c(c1)C(=O)N(C[C@@]1(c3cc4nc(-c5ccc(N6CCOCC6)nc5)ccc4o3)NC(=O)NC1=O)C2 [Compound 2151] | 800 | 0.692 | – | –
COc1ccc2c(c1)C(=O)N(C[C@@]1(c3cc4nc(N(c5cn[nH]c5)C5CCN(C)CC5)ccc4o3)NC(=O)NC1=O)C2 [Compound 1703] | – | – | – | AUC ([2]; plasma 0.5-6 h): 0.064 µM·h; Ki ([3]; Ki): 1 nM
COc1ccc2c(c1)C(=O)N(C[C@@]1(c3cc4nc(C(N)=O)ccc4o3)NC(=O)NC1=O)C2 [Compound 2457] | – | – | – | IC50 [1, 6]: 200 nM; RR AUC (rapid rat AUC, rrAUC) [2, 8]: 0.113 µM·h
CCCN1CCN(c2ccc3oc([C@]4(CN5Cc6ccc(OC)c(F)c6C5=O)NC(=O)NC4=O)cc3n2)CC1 [Compound 1708] | – | – | – | IC50 [1, 5]: 175 nM; AUC ([2]; plasma 0.5-6 h): 10.4 µM·h
COc1ccc2c(c1F)C(=O)N(C[C@@]1(c3cc4nc(N5CCC(N(C)C)CC5)ccc4o3)NC(=O)NC1=O)C2 [Compound 1298] | 79 | 0.037 | – | –
COc1ccc2c(c1F)C(=O)N(C[C@@]1(c3cc4nc(N5CCNC(=O)C5)ccc4o3)NC(=O)NC1=O)C2 [Compound 1700] | – | – | – | AUC ([2]; plasma 0.5-6 h): 0.105 µM·h; Ki ([3]; Ki): 0.6 nM
COc1ccc2c(c1)C(=O)N(C[C@@]1(c3cc4c(C#N)nccc4o3)NC(=O)NC1=O)C2 [Compound 2445] | – | – | – | IC50 [1, 6]: 1240 nM; RR AUC (rapid rat AUC, rrAUC) [2, 8]: 0.485 µM·h
COc1ccc2c(c1F)C(=O)N(C[C@@]1(c3cc4nc(N5CC(=O)NC5=O)c(F)cc4o3)NC(=O)NC1=O)C2 [Compound 1330] | – | – | – | AUC ([2]; plasma 0.5-6 h): 3.19 µM·h; Ki ([3]; Ki): 0.39 nM
CCOC(=O)N1CCc2oc([C@]3(CN4Cc5ccc(OC)cc5C4=O)NC(=O)NC3=O)cc2C1 [Compound 2437] | – | – | – | IC50 [1, 6]: 654 nM; RR AUC (rapid rat AUC, rrAUC) [2, 8]: 4.026 µM·h
COc1ccc2c(c1F)C(=O)N(C[C@@]1(c3cc4nc(Nc5cccnc5)ccc4o3)NC(=O)NC1=O)C2 [Compound 1728] | – | – | 0.47 | IC50 [1, 5]: 280 nM
COc1ccc2c(c1F)C(=O)N(C[C@@]1(c3cc4c(ccc5sc(N)nc54)o3)NC(=O)NC1=O)C2 [Compound 1741] | – | – | 0.22 | IC50 [1, 5]: 231 nM
COc1ccc2c(c1)C(=O)N(C[C@@]1(c3cc4nc(-c5ccc(F)c(C#N)c5)ccc4o3)NC(=O)NC1=O)C2 [Compound 1507] | – | – | 0.7 | IC50 [1, 5]: 4120 nM

Further lines, with some results ahead:

IC50 [1, 4] [nM] | AUC ([2]; plasma 0.5-6 h post-dosing) [µM·h] | Ki ([3]; read-out: Ki) [nM] | Structure (SMILES) | further results
– | – | 0.859 | CNC(=O)c1ccc2oc([C@]3(CN4Cc5ccc(OC)cc5C4=O)NC(=O)NC3=O)cc2n1 [Compound 2462] | IC50 [1, 6]: 280 nM; AUC [2, 7]: 1.07 µM·h
– | – | 0.58 | COc1ccc2c(c1)C(=O)N(C[C@@]1(c3cc4c(C(N)=O)nccc4o3)NC(=O)NC1=O)C2 [Compound 2401] | IC50 [1, 6]: 270 nM; AUC [2, 7]: 1.43 µM·h
1040 | 0.278 | 5.27 | COCCN1CCc2oc([C@]3(CN4Cc5ccc(OC)cc5C4=O)NC(=O)NC3=O)cc2C1 [Compound 2267] | –
– | – | 0.264 | CCc1cc2oc([C@]3(CN4Cc5ccc(OC)cc5C4=O)NC(=O)NC3=O)cc2cn1 [Compound 2290] | IC50 [1, 6]: 643 nM; AUC [2, 7]: 20.3 µM·h
541 | 0.057 | 0.478 | CNC(=O)Nc1ccc2oc([C@]3(CN4Cc5ccc(OC)cc5C4=O)NC(=O)NC3=O)cc2c1 [Compound 2227] | –
1200 | 5.19 | – | COc1ccc2c(c1)C(=O)N(C[C@@]1(c3cc4nc(-c5ccnn5C)ccc4o3)NC(=O)NC1=O)C2 [Compound 2116] | –
243 | 2.54 | 0.955 | COc1ccc2c(c1)C(=O)N(C[C@@]1(c3cc4nc(N5CCC5=O)ccc4o3)NC(=O)NC1=O)C2 [Compound 2173] | –
– | – | 1.31 | COc1ccc2c(c1)C(=O)N(C[C@@]1(c3cc4cc(NC(C)=O)cnc4o3)NC(=O)NC1=O)C2 [Compound 2295] | IC50 [1, 6]: 222 nM; AUC [2, 7]: 0.044 µM·h
2240 | 0.033 | 2 | COc1ccc2c(c1)C(=O)N(C[C@@]1(c3cc4c(C5=NCCN5)nccc4o3)NC(=O)NC1=O)C2 [Compound 2274] | –
– | – | 0.49 | COc1ccc2c(c1)C(=O)N(C[C@@]1(c3cc4cc(Cl)ncc4o3)NC(=O)NC1=O)C2 [Compound 2300] | IC50 [1, 6]: 902 nM; AUC [2, 7]: 22.7 µM·h
– | – | 0.553 | COc1ccc2c(c1)C(=O)N(C[C@@]1(c3cc4c(C(C)O)nccc4o3)NC(=O)NC1=O)C2 (stereo partly drawn) [Compound 2294] | IC50 [1, 6]: 323 nM; AUC [2, 7]: 0.154 µM·h
1540 | 7.06 | 0.645 | COc1ccc2c(c1)C(=O)N(C[C@@]1(c3cc4cc(-n5cncn5)ccc4o3)NC(=O)NC1=O)C2 [Compound 2196] | –
637 | 0.257 | 0.418 | COc1ccc2c(c1)C(=O)N(C[C@@]1(c3cc4nc(Nc5ccnn5C)ccc4o3)NC(=O)NC1=O)C2 [Compound 2131] | –
216 | 7.54 | 0.155 | COc1ccc2c(c1)C(=O)N(C[C@@]1(c3cc4nc(-c5c(C)nn(C)c5C)ccc4o3)NC(=O)NC1=O)C2 [Compound 2105] | –
– | – | 0.7 | COc1ccc2c(c1)C(=O)N(C[C@@]1(c3cc4nc(N5CCC[C@H]5CO)ccc4o3)NC(=O)NC1=O)C2 [Compound 1513] | IC50 [1, 5]: 526 nM; AUC ([2]; plasma 0.5-6 h): 0.524 µM·h
1200 | 5.19 | – | COc1ccc2c(c1)C(=O)N(C[C@@]1(c3cc4nc(N5CC(C)NC(C)C5)ccc4o3)NC(=O)NC1=O)C2 (stereo partly drawn) [Compound 2120] | –
– | – | 1.04 | COc1ccc2c(c1)C(=O)N(C[C@@]1(c3cc4cc(C5CCNCC5)ncc4o3)NC(=O)NC1=O)C2 [Compound 301] | IC50 [1, 5]: 162 nM
860 | – | 7.83 | COc1ccc2c(c1)C(=O)N(C[C@@]1(c3cc4c(o3)CNCC4)NC(=O)NC1=O)C2 [Compound 2266] | –
